Test results published in patent US20230140276A1, “TRICYCLIC COMPOUNDS, PREPARATION METHOD AND MEDICAL USE THEREOF” (HEFEI INSTITUTE OF PHARMACEUTICAL INDUSTRY CO., LTD., priority 2020, published 2023).

Tests used:
[1] = test system: pilocarpine-induced saliva secretion; experiment: Pilocarpine-induced salivation in rats; settings: for Inhibition rate (%): 10 mg/kg intragastric, pilocarpine 1 mg/kg i.p. 15 minutes later, saliva collected 10 minutes; for saliva secretion compared with the model group: 10 mg/kg intragastric administration
Procedure: Rats in each group were given corresponding drugs by intragastric administration. 15 minutes later, pilocarpine (1 mg/kg, dissolved in physiological saline) was injected intraperitoneally to induce saliva secretion. The rat was immediately anesthetized by intraperitoneal injection of 10% chloral hydrate. After the rat was anesthetized, the residual saliva in the oral cavity was taken out with a cotton ball in that the weighed cotton ball (M1) was placed in the oral cavity (two under the tongue and one for each on both sides). The cotton ball was taken out 10 minutes later and the weight of the cotton ball (M2) was immediately measured.
Inhibition rate=Saliva secretion in drug administration group/Saliva secretion in model group×100%

[2] = test system: histamine-induced skin vascular permeability; experiment: Inhibitory effect on histamine-induced vascular permeability in mice; assay type: in vivo, ICR mice; settings: Mus musculus, po; 5 mg/kg intragastric 1 hour before modeling; histamine phosphate 1 ug/0.1 mL; Evans Blue absorbance at 610 nm; read-out: Inhibition rate (%)
Procedure: Intragastric administration was performed 1 hour before modeling. The model group was given the corresponding solvent. […] 10% sodium sulfide was used to depilate the back of mice (3 cm×3 cm). The mice were injected 1 ug/0.1 mL of histamine phosphate physiological saline solution into the depilation site one hour after the administration, and injected 0.25% Evans Blue solution 4 ml/kg from the tail vein immediately after the injection. After 30 minutes, the mice were dislocated and sacrificed. The blue-stained part of the skin was removed and perforated (diameter 15 mm), cut into pieces and soaked in 1 ml of acetone-saline (7:3) solution. After 24 h, it was centrifuged (3000 r/min, 10 min) to take the supernatant. The absorbance of the sample was measured with an ultraviolet spectrophotometer at a wavelength of 610 nm and a blank zero calibration with acetone-physiological saline solution.

hERG potassium channel = hERG potassium channel (Homo sapiens, UniProt Q12809); experiment: hERG potassium channel activity test; assay type: biochemical
Chain of hERG potassium channel (Q12809 whole entry): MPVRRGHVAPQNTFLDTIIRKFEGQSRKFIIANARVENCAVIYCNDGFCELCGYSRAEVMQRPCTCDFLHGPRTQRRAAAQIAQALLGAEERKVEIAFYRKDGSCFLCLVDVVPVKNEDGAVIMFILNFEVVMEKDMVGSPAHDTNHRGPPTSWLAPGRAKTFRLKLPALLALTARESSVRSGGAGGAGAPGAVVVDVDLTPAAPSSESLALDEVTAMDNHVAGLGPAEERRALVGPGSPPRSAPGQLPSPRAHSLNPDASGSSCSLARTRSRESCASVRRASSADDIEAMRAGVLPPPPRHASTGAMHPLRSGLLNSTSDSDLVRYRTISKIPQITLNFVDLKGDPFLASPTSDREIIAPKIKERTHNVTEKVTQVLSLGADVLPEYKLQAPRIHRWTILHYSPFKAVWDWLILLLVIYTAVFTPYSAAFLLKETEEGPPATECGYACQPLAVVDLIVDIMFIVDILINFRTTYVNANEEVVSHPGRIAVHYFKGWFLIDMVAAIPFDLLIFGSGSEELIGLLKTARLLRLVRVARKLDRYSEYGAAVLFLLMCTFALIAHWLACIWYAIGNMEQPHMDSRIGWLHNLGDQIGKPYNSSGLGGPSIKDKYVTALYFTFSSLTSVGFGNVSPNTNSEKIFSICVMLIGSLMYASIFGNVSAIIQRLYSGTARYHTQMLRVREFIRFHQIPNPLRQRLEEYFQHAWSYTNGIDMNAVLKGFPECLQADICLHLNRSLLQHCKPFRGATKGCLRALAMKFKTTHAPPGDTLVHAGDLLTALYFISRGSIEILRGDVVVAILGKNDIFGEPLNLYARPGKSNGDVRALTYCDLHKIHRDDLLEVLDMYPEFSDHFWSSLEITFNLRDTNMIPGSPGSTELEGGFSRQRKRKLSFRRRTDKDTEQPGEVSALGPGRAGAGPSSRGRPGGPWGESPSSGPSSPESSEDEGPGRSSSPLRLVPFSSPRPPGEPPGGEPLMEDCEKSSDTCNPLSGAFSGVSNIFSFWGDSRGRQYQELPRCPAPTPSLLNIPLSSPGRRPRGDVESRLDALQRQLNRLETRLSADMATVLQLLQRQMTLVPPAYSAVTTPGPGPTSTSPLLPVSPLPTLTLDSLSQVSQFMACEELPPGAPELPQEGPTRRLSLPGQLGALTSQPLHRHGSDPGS

Row | Compound | Inhibition rate (%) [1] | saliva secretion compared with the model group [1] | inhibition in vivo at 5 mg/kg [2] | IC50 (hERG potassium channel)
1 | CC(C)(C(=O)O)c1ccc(CCCN2CCC(=C3c4ccccc4CCc4cc(Cl)ccc43)CC2)cc1 [Example 21, 2-(4-(3-(4-(2-chloro-10,11-dihydro-5H-dibenzo[a,d][7]cycloheptenyl-naphthylene)piperidine-1-yl)propyl)phenyl)-2-methylpropionic acid] | 16.54% |  | 42.6% | > 30 µM
2 | CC(C)(C(=O)O)c1ccc(CN2CCC(=C3c4ccc(Cl)cc4CCc4cccnc43)CC2)cc1 [Example 1, 2-(4-((4-(8-chloro-5,6-dihydro-11H-benzo[5,6]cyclohept[1,2-b]pyridine-11-enyl)piperidine-1-yl)methyl)phenyl)-2-methylpropionic acid] | 18.53% |  | 52.2% | > 30 µM
3 | CC(C)(C(=O)O)c1ccc(CCCN2CCC(=C3c4ccc(Cl)cc4CCc4cccnc43)CC2)cc1 [Example 3, 2-(4-(3-(4-(8-chloro-5,6-dihydro-11H-benzo[5,6]cyclohept[1,2-b]pyridine-11-enyl)piperidine-1-yl)propyl)phenyl)-2-methylpropionic acid] | 7.02% |  | 41.7% | > 30 µM
4 | COc1ccccc1OCC(O)CN1CCC(=C2c3ccc(Cl)cc3CCc3cccnc32)CC1 (stereo not drawn) [Compound LHC-7, reference compound] | 95.60% |  | 53.2% | 0.248 µM
5 | CC(C)(C(=O)[O-])c1ccc(CCN2CCC(=C3c4ccc(Cl)cc4CCc4cccnc43)CC2)cc1.[Na+] [Example 32] | 18.93% |  |  | > 30 µM
6 | CC(C)(C(=O)O)c1ccc(CCCN2CCC(=C3c4ccc(Cl)cc4CCc4cccnc43)CC2)c(OC(F)(F)F)c1 [Example 7, 2-(4-(3-(4-(8-chloro-5,6-dihydro-11H-benzo[5,6]cyclohepta[1,2-b]pyridine-11-enyl)piperidine-1-yl)propyl)-3-(trifluoromethoxy)phenyl)-2-methylpropionic acid] | 4.65% |  | 42.6% | > 30 µM

Second part, led by results:

Row | Inhibition rate (%) [1] | saliva secretion compared with the model group [1] | Compound | inhibition in vivo at 5 mg/kg [2] | IC50 (hERG potassium channel)
7 | 8.72% |  | CC(C)(C(=O)O)c1ccc(CCCN2CCC(=C3c4ccc(Cl)cc4CCc4cccnc43)CC2)c(C#N)c1 [Example 4, 2-(4-(3-(4-(8-chloro-5,6-dihydro-11H-benzo[5,6]cyclohepta[1,2-b]pyridine-11-ylidene)piperidine-1-yl)propyl)-3-cyano)-2-methylpropionic acid] | 65.4% | > 30 µM
8 | 11.28% |  | CC(C)(C(=O)O)c1ccc(C(O)CCCN2CCC(=C3c4ccc(Cl)cc4CCc4cccnc43)CC2)cc1 (stereo not drawn) [Example 29] | 64.3% | > 30 µM
9 | 13.28% |  | CC(C)(C(=O)O)c1ccc(C#N)c(CCCN2CCC(=C3c4ccc(Cl)cc4CCc4cccnc43)CC2)c1 [Example 26] | 68.2% | > 30 µM
10 | 8.23% |  | CC(C)(C(=O)O)c1ccc(CCCN2CCC(=C3c4ccc(Cl)cc4CCc4cccnc43)CC2)c(F)c1 [Example 8, 2-(4-(3-(4-(8-chloro-5,6-dihydro-11H-benzo[5,6]cyclohepta[1,2-b]pyridine-11-enyl)piperidine-1-yl)propyl)-3-fluorophenyl)-2-methylpropionic acid] | 34.9% | > 30 µM
11 | 5.20% |  | Cc1cc(CCCN2CCC(=C3c4ccc(Cl)cc4CCc4cccnc43)CC2)ccc1C(C)(C)C(=O)O [Example 11, 2-(4-(3-(4-(8-chloro-5,6-dihydro-11H-benzo[5,6]cyclohepta[1,2-b]pyridine-11-enyl)piperidine-1-yl)propyl)-2-methylphenyl)-2-methylpropionic acid] | 36.9% | > 30 µM
12 | 98.40% | decreased | Cc1nc(C)c(CN2CCC(=C3c4ccc(Cl)cc4CCc4cccnc43)CC2)nc1C [Compound LP-2, reference compound] | 54.1% | 4.03 µM
13 | 84.30% | decreased | Cc1ccc2c(c1)CCc1cccnc1C2=C1CCN(CCCc2ccc(C(=O)O)cc2)CC1 [Compound 1, reference compound] | 36.1% | 2.03 µM
14 | 11.60% |  | COc1cc(C(C)(C)C(=O)O)ccc1CCCN1CCC(=C2c3ccc(Cl)cc3CCc3cccnc32)CC1 [Example 5, 2-(4-(3-(4-(8-chloro-5,6-dihydro-11H-benzo[5,6]cyclohepta[1,2-b]pyridine-11-enyl)piperidine-1-yl)propyl)-3-methoxyphenyl)-2-methylpropionic acid] | 47.9% | 
